Literature values, collected in EP1649859A1, “Pharmaceutical compositions comprising at least one poorly diffusible anticancer drug and a olidodeoxynucleotide immunestimulant” (Institut Gustave Roussy, priority 2004, dated 2006).

Conditions: bléomycine seule à des doses sub-thérapeutiques

## bléomycine
  activité antitumorale propre: ne possèdent pas d'activité antitumorale propre
